We go through 14 compounds from patent publication US8507527B2, “Method for stabilizing anti-dementia drug” (EISAI R & D Management Co., Ltd., priority 2004, dated 2013).

The first series is described as follows: pH of aqueous solutions or suspensions of additives, polymers and donepezil hydrochloride. Type of series: physicochemical. To be noted: 2.5% aqueous solution or suspension.
`OC[C@H]1O[C@@H](O[C@H]2[C@H](O)[C@@H](O)C(O)O[C@@H]2CO)[C@H](O)[C@@H](O)[C@H]1O` (some centres unmarked) [FlowLac100, LACTOSE] had a pH of 5.5.

Staying with this series, now noted: additive of the example alone, dissolved or suspended in purified water at 2.5%.
`O=C1O[C@H]([C@@H](O)CO)C(O)=C1O` [ASCORBIC ACID, ascorbic acid]: the “pH OF ADDITIVES (2.5% AQUEOUS SOLUTIONS OR SUSPENSIONS)” value was 2.6. Turning to `N[C@@H](CC(=O)O)C(=O)O` [ASPARTIC ACID, aspartic acid], the “pH OF ADDITIVES (2.5% AQUEOUS SOLUTIONS OR SUSPENSIONS)” value was 3.0.

Take `O=C(O)CC(O)(CC(=O)O)C(=O)O` [CITRIC ACID, citric acid]: the “pH OF ADDITIVES (2.5% AQUEOUS SOLUTIONS OR SUSPENSIONS)” value came to 2.0. As to `Cl.N[C@@H](CS)C(=O)O` [CYSTEINE HYDROCHLORIDE, cysteine hydrochloride], the “pH OF ADDITIVES (2.5% AQUEOUS SOLUTIONS OR SUSPENSIONS)” value is 1.5.

With `N[C@@H](CS)C(=O)O` [CYSTEINE, cysteine], the “pH OF ADDITIVES (2.5% AQUEOUS SOLUTIONS OR SUSPENSIONS)” value turned out to be 5.1. Same read-out and setting: with `O=C([O-])CC(O)(CC(=O)[O-])C(=O)O.[Na+].[Na+]` [DISODIUM CITRATE, disodium citrate] the figure was 5.2; with `O=C([O-])CN(CCN(CC(=O)[O-])CC(=O)O)CC(=O)O.[Na+].[Na+]` [DISODIUM EDETATE, disodium edetate], 4.5; with `NCC(=O)O` [GLYCINE, glycine], 6.2. As for `CSCC[C@H](N)C(=O)O` [METHIONINE, methionine], the “pH OF ADDITIVES (2.5% AQUEOUS SOLUTIONS OR SUSPENSIONS)” value was 5.9. The same measure, in the same setting: with `O=C1O[C@H]([C@@H](O)CO)C([O-])=C1O.[Na+]` [SODIUM ASCORBATE, sodium ascorbate] the figure was 7.5; with `N[C@@H](CC(=O)[O-])C(=O)[O-].[Na+].[Na+]` [SODIUM ASPARTATE, sodium aspartate], 6.8.

For the compound `O=C([O-])CC(O)(CC(=O)[O-])C(=O)[O-].[Na+].[Na+].[Na+]` [SODIUM CITRATE, sodium citrate], the “pH OF ADDITIVES (2.5% AQUEOUS SOLUTIONS OR SUSPENSIONS)” value is reported as 8.3. On the same count and under the same terms, with sodium dihydrogen citrate [SODIUM […]] the figure was 3.7.
